Reference: ChEMBL document CHEMBL3112450, “Synthesis and in vitro antitumor evaluation of primary amine substituted quinazoline linked benzimidazole” (Bioorg Med Chem Lett, 2014)

Key:
Assay type in all cases: functional
NCI-H322M [1] = experiment: Cytotoxicity against human NCI-H322M cells after 48 hrs by SRB assay
SK-MEL-5 [2] = experiment: Cytotoxicity against human SK-MEL-5 cells assessed as cell growth at 10^-7 M after 48 hrs by SRB assay; conditions: SK-MEL-5, 48 h, read-out: Activity
Malme-3M [3] = experiment: Cytotoxicity against human MALME-3M cells assessed as cell growth at 10^-4 M after 48 hrs by SRB assay; conditions: read-out: Activity
Malme-3M [4] = experiment: Cytotoxicity against human MALME-3M cells assessed as cell growth at 10^-8 M after 48 hrs by SRB assay; conditions: read-out: Activity
SK-MEL-5 [5] = experiment: Cytotoxicity against human SK-MEL-5 cells assessed as cell growth at 10^-8 M after 48 hrs by SRB assay; conditions: SK-MEL-5, 48 h, read-out: Activity
[6] = Cytotoxicity against human OVCAR5 cells assessed as cell growth at 10^-6 M after 48 hrs by SRB assay; conditions: OVCAR-5, 48 h, read-out: Activity
RPMI-8226 [7] = experiment: Cytotoxicity against human RPMI8226 cells after 48 hrs by SRB assay; conditions: RPMI-8226, 48 h
NCI-H522 [8] = experiment: Cytotoxicity against human NCI-H522 cells after 48 hrs by SRB assay; conditions: NCI-H522, 48 h
MCF7 = experiment: Cytotoxicity against human MCF7 cells assessed as cell growth at 10^-8 M after 48 hrs by SRB assay; conditions: MCF7, 48 h, read-out: Activity
SK-MEL-28 = experiment: Cytotoxicity against human SK-MEL-28 cells after 48 hrs by SRB assay; conditions: SK-MEL-28, 48 h
MOLT-4 [9] = experiment: Cytotoxicity against human MOLT4 cells assessed as cell growth at 10^-7 M after 48 hrs by SRB assay; conditions: MOLT-4, 48 h, read-out: Activity
A498 [10] = experiment: Cytotoxicity against human A498 cells assessed as cell growth at 10^-8 M after 48 hrs by SRB assay; conditions: A498, 48 h, read-out: Activity
HCT-15 = experiment: Cytotoxicity against human HCT15 cells assessed as cell growth at 10^-7 M after 48 hrs by SRB assay; conditions: HCT-15, 48 h, read-out: Activity
SF-268 = experiment: Cytotoxicity against human SF268 cells assessed as cell growth at 10^-7 M after 48 hrs by SRB assay; conditions: SF-268, 48 h, read-out: Activity
SW-620 [11] = experiment: Cytotoxicity against human SW620 cells assessed as cell growth at 10^-8 M after 48 hrs by SRB assay; conditions: SW-620, 48 h, read-out: Activity
[12] = Cytotoxicity against human UO31 cells assessed as cell growth at 10^-4 M after 48 hrs by SRB assay; conditions: UO-31, 48 h, read-out: Activity
[13] = Cytotoxicity against human UO31 cells assessed as cell growth at 10^-7 M after 48 hrs by SRB assay; conditions: UO-31, 48 h, read-out: Activity
KM12 = experiment: Cytotoxicity against human KM12 cells assessed as cell growth at 10^-7 M after 48 hrs by SRB assay; conditions: KM12, 48 h, read-out: Activity
HOP-92 = experiment: Cytotoxicity against human HOP92 cells assessed as cell growth at 10^-8 M after 48 hrs by SRB assay; conditions: HOP-92, 48 h, read-out: Activity
NCI-H522 [14] = experiment: Cytotoxicity against human NCI-H522 cells assessed as cell growth at 10^-6 M after 48 hrs by SRB assay; conditions: NCI-H522, 48 h, read-out: Activity
[15] = Cytotoxicity against human UO31 cells after 48 hrs by SRB assay; conditions: UO-31, 48 h
NCI-H322M [16] = experiment: Cytotoxicity against human NCI-H322M cells assessed as cell growth at 10^-8 M after 48 hrs by SRB assay; conditions: read-out: Activity
RPMI-8226 [17] = experiment: Cytotoxicity against human RPMI8226 cells assessed as cell growth at 10^-4 M after 48 hrs by SRB assay; conditions: RPMI-8226, 48 h, read-out: Activity
CCRF-CEM [18] = experiment: Cytotoxicity against human CCRF-CEM cells assessed as cell growth at 10^-4 M after 48 hrs by SRB assay; conditions: read-out: Activity
[19] = Cytotoxicity against human OVCAR5 cells assessed as cell growth at 10^-4 M after 48 hrs by SRB assay; conditions: OVCAR-5, 48 h, read-out: Activity
COLO 205 = experiment: Cytotoxicity against human COLO205 cells assessed as cell growth at 10^-8 M after 48 hrs by SRB assay; conditions: COLO 205, 48 h, read-out: Activity
[20] = Cytotoxicity against human OVCAR4 cells assessed as cell growth at 10^-8 M after 48 hrs by SRB assay; conditions: OVCAR-4, 48 h, read-out: Activity
RXF 393 [21] = experiment: Cytotoxicity against human RXF393 cells assessed as cell growth at 10^-7 M after 48 hrs by SRB assay; conditions: RXF 393, 48 h, read-out: Activity
A498 [22] = experiment: Cytotoxicity against human A498 cells assessed as cell growth at 10^-4 M after 48 hrs by SRB assay; conditions: A498, 48 h, read-out: Activity
T47D = experiment: Cytotoxicity against human T47D cells assessed as cell growth at 10^-8 M after 48 hrs by SRB assay; conditions: read-out: Activity
CCRF-CEM [23] = experiment: Cytotoxicity against human CCRF-CEM cells after 48 hrs by SRB assay
M14 = experiment: Cytotoxicity against human M14 cells assessed as cell growth at 10^-4 M after 48 hrs by SRB assay; conditions: M14, 48 h, read-out: Activity
[24] = Cytotoxicity against human Hs578T cells after 48 hrs by SRB assay; conditions: Hs-578T
RXF 393 [25] = experiment: Cytotoxicity against human RXF393 cells assessed as cell growth at 10^-8 M after 48 hrs by SRB assay; conditions: RXF 393, 48 h, read-out: Activity
[26] = Cytotoxicity against human Hs578T cells assessed as cell growth at 10^-4 M after 48 hrs by SRB assay; conditions: Hs-578T, read-out: Activity
Malme-3M [27] = experiment: Cytotoxicity against human MALME-3M cells assessed as cell growth at 10^-7 M after 48 hrs by SRB assay; conditions: read-out: Activity
MOLT-4 [28] = experiment: Cytotoxicity against human MOLT4 cells assessed as cell growth at 10^-4 M after 48 hrs by SRB assay; conditions: MOLT-4, 48 h, read-out: Activity
SW-620 [29] = experiment: Cytotoxicity against human SW620 cells assessed as cell growth at 10^-7 M after 48 hrs by SRB assay; conditions: SW-620, 48 h, read-out: Activity
HCT-116 = experiment: Cytotoxicity against human HCT116 cells after 48 hrs by SRB assay; conditions: HCT-116, 48 h
UACC-62 = experiment: Cytotoxicity against human UACC62 cells assessed as cell growth at 10^-7 M after 48 hrs by SRB assay; conditions: UACC-62, 48 h, read-out: Activity

C=CCn1c(C)nc2ccc(Nc3nc(Nc4ccc(F)cc4)nc4ccccc34)cc21
GI50 (NCI-H322M [1]): 6.16 µM
LC50 (NCI-H322M [1]): 55.1 µM
TGI (NCI-H322M [1]): 21.5 µM
growth at 0.1 µM (SK-MEL-5 [2]): 93%
growth at 100 µM (Malme-3M [3]): -51%
growth at 0.01 µM (Malme-3M [4]): 97%
growth at 0.01 µM (SK-MEL-5 [5]): 92%
growth at 1 µM [6]: 92%
GI50 (RPMI-8226 [7]): 1.85 µM
LC50 (RPMI-8226 [7]): > 100 µM
TGI (RPMI-8226 [7]): 4.57 µM
GI50 (NCI-H522 [8]): 3.12 µM
TGI (NCI-H522 [8]): 13.4 µM
CC50 (NCI-H522 [8]; read-out: LC50 (the source's name)): 75.5 µM
growth at 0.01 µM (MCF7): 91%
GI50 (SK-MEL-28): 1.65 µM
LC50 (SK-MEL-28): 5.94 µM
TGI (SK-MEL-28): 3.13 µM
growth at 0.1 µM (MOLT-4 [9]): 96%
growth at 0.01 µM (A498 [10]): 81%
growth at 0.1 µM (HCT-15): 101%
growth at 0.1 µM (SF-268): 90%
growth at 0.01 µM (SW-620 [11]): 99%
growth at 100 µM [12]: -82%
growth at 0.1 µM [13]: 86%
growth at 0.1 µM (KM12): 94%
growth at 0.01 µM (HOP-92): 95%
growth at 1 µM (NCI-H522 [14]): 91%
GI50 [15]: 4.53 µM
LC50 (concentration causing 50% net cell kill) [15]: 52.8 µM
TGI [15]: 19.3 µM
growth at 0.01 µM (NCI-H322M [16]): 87%
growth at 100 µM (RPMI-8226 [17]): -36%
growth at 100 µM (CCRF-CEM [18]): -23%
growth at 100 µM [19]: -80%
growth at 0.01 µM (COLO 205): 97%
growth at 0.01 µM [20]: 96%
growth at 0.1 µM (RXF 393 [21]): 83%
growth at 100 µM (A498 [22]): -68%
growth at 0.01 µM (T47D): 85%
GI50 (CCRF-CEM [23]): 3.01 µM
LC50 (CCRF-CEM [23]): > 100 µM
TGI (CCRF-CEM [23]): 11.7 µM
growth at 100 µM (M14): -44%
GI50 [24]: 9.83 µM
LC50 [24]: > 100 µM
TGI [24]: 56.7 µM
growth at 0.01 µM (RXF 393 [25]): 98%
growth at 100 µM [26]: -16%
growth at 0.1 µM (Malme-3M [27]): 98%
growth at 100 µM (MOLT-4 [28]): -48%
growth at 0.1 µM (SW-620 [29]): 95%
GI50 (HCT-116): 2.41 µM
LC50 (concentration killing 50% of cells) (HCT-116): 39.1 µM
TGI (HCT-116): 7.67 µM
growth at 0.1 µM (UACC-62): 95%

C=CCn1c(C)nc2ccc(Nc3nc(Nc4ccc5nc(C)n(CC=C)c5c4)c4ccccc4n3)cc21
GI50 (NCI-H322M [1]): 1.71 µM
LC50 (NCI-H322M [1]): 6.15 µM
TGI (NCI-H322M [1]): 3.24 µM
growth at 0.1 µM (SK-MEL-5 [2]): 94%
growth at 100 µM (Malme-3M [3]): -5%
growth at 0.01 µM (Malme-3M [4]): 91%
growth at 0.01 µM (SK-MEL-5 [5]): 94%
growth at 1 µM [6]: 94%
GI50 (RPMI-8226 [7]): 1.87 µM
LC50 (RPMI-8226 [7]): > 100 µM
GI50 (NCI-H522 [8]): 2.03 µM
TGI (NCI-H522 [8]): 3.53 µM
growth at 0.01 µM (MCF7): 92%
GI50 (SK-MEL-28): 1.84 µM
TGI (SK-MEL-28): 3.28 µM
growth at 0.1 µM (MOLT-4 [9]): 94%
growth at 0.01 µM (A498 [10]): 69%
growth at 0.1 µM (HCT-15): 91%
growth at 0.1 µM (SF-268): 86%
growth at 0.01 µM (SW-620 [11]): 98%
growth at 100 µM [12]: -46%
growth at 0.1 µM [13]: 80%
growth at 0.1 µM (KM12): 92%
growth at 0.01 µM (HOP-92): 92%
growth at 1 µM (NCI-H522 [14]): 114%
GI50 [15]: 1.36 µM
TGI [15]: 2.88 µM
growth at 0.01 µM (NCI-H322M [16]): 89%
growth at 100 µM (RPMI-8226 [17]): 5%
growth at 100 µM (CCRF-CEM [18]): 2%
growth at 100 µM [19]: -75%
growth at 0.01 µM (COLO 205): 105%
growth at 0.01 µM [20]: 99%
growth at 0.1 µM (RXF 393 [21]): 96%
growth at 100 µM (A498 [22]): -21%
growth at 0.01 µM (T47D): 96%
GI50 (CCRF-CEM [23]): 2.09 µM
LC50 (CCRF-CEM [23]): > 100 µM
growth at 100 µM (M14): -7%
GI50 [24]: 1.71 µM
TGI [24]: 4.08 µM
growth at 0.01 µM (RXF 393 [25]): 95%
growth at 100 µM [26]: -15%
growth at 0.1 µM (Malme-3M [27]): 92%
growth at 100 µM (MOLT-4 [28]): 2%
growth at 0.1 µM (SW-620 [29]): 94%
GI50 (HCT-116): 1.37 µM
growth at 0.1 µM (UACC-62): 94%
